This note sets out measurements from US12371454B2, “Cyclic peptide compound having Kras inhibitory action” (priority 2019, dated 2025).

The test system of test [1] is Human pancreatic cancer cell line AsPC-1. Put plainly: Measurement of AsPC-1 cell growth inhibition (AsPC-1 CGI). It is filed as cell-based. As to conditions: 96 h. In a few lines: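 AsPC-1 cells in 15% FBS RPMI-1640 were exposed to test compound for 96 hours at 37° C, with CellTiter-Glo as endpoint.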
In test [2] the target is T1, Kras and SOS1 (biotin-tagged human Kras loaded with GDP, His-tagged human SOS1) (Homo sapiens, UniProt P01116, G12D).
T1 construct: made in house; host or cells: E. coli (stated for Kras only)
T1 sequence (P01116 1-188 isoform P01116-2 G12D): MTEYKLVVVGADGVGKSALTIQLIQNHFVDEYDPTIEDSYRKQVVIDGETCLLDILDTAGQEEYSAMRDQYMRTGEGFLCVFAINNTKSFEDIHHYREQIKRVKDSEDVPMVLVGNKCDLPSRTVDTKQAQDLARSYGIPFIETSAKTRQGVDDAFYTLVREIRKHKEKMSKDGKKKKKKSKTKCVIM
Put plainly: Protein-protein interaction inhibition between Kras and SOS1 (KrasGl2D-SOS PPI) using AlphaScreen. The class given is binding. As to conditions: AlphaScreen; biotin-tagged human Kras loaded with GDP, His-tagged human SOS1; read-out: KRAS G12D-SOS PPI IC50. In outline:
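Binding between SOS1 and Kras is detected as bead-proximity luminescence: illuminate Ni-conjugated donors (680 nm), collect 520-620 nm emission from streptavidin-conjugated acceptors; Kras carries biotin and GDP loaded after purification, SOS1 carries a His tag.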
(In general: Alpha assays give light when donor and acceptor beads are brought close together.)

Molecules are shown by their SMILES. pIC50: −log10 of the molar value. Starred links: 1 amine or outer side, 2 acyl side, 3 side chain; linkers in the order of their positions; H or OH if unused. Positions of bridges follow the written chain, without caps; N, C: chain ends. Non-standard residues stand in square brackets, D forms with d. Residues, ends and D or L forms follow the SMILES beside them. *: point of attachment. hPhe(3-Cl-4-CF3) = N[C@@H](CCc1ccc(C(F)(F)F)c(Cl)c1)C(=O)O; X52 = CN([C@@H](Cc1ccc(C#N)nc1)C(=O)[*:2])[*:1]; NMeGly(cBu) = CN[C@H](C(=O)O)C1CCC1; NMeCha = CN[C@@H](CC1CCCCC1)C(=O)O; NMeChg = CN[C@H](C(=O)O)C1CCCCC1; X7 = O=C(CN(c1ccsc1)[*:1])[*:2]; NMeD = CN[C@@H](CC(=O)O)C(=O)O; NMeL = CN[C@@H](CC(C)C)C(=O)O; NMeA = CN[C@@H](C)C(=O)O; Piperidide = C1CCN(*)CC1; Ac5c = NC1(C(=O)O)CCCC1; Sar = CNCC(=O)O

By pIC50 is commonly meant −log10 of the IC50, conventionally taken in molar units. As for `CC[C@H](C)[C@@H]1NC(=O)[C@H](C)N(C)C(=O)C[C@@H](C(=O)N2CCCCC2)N(C)C(=O)[C@H](C2CCC2)N(C)C(=O)C2(CCCC2)NC(=O)CN(c2ccsc2)C(=O)[C@H](CCc2ccc(C(F)(F)F)c(Cl)c2)NC(=O)CN(C)C(=O)[C@H](CC2CCCCC2)N(C)C(=O)CN(C)C(=O)CN(C)C1=O` [Compound 2149] ([NMeA]I[Sar][Sar][NMeCha][Sar][hPhe(3-Cl-4-CF3)][X7][Ac5c][NMeGly(cBu)][NMeD]-Piperidide; lactam N-11), the negative logarithm of the IC50 (pIC50) was less than 6.30 in test [1] and 8.40 in test [2].

For the molecule `CC[C@H](C)[C@@H]1NC(=O)[C@H](CC(C)C)N(C)C(=O)C[C@@H](C(=O)N2CCCCC2)N(C)C(=O)[C@H](C2CCCCC2)N(C)C(=O)C2(CCCC2)NC(=O)[C@H](Cc2ccc(C#N)nc2)N(C)C(=O)[C@H](CCc2ccc(C(F)(F)F)c(Cl)c2)NC(=O)CN(C)C(=O)[C@H](CC2CCCCC2)N(C)C(=O)CN(C)C(=O)CN(C)C1=O` [Compound 2169] ([NMeL]I[Sar][Sar][NMeCha][Sar][hPhe(3-Cl-4-CF3)][X52][Ac5c][NMeChg][NMeD]-Piperidide; lactam N-11), the results for the pIC50 in test [1] and in test [2] were less than 6.30 and 8.21, respectively.
